From patent US8673854B2, “Prophylactic agent for heart failure” (Calpis Co., Ltd., priority 2007, dated 2014)

Columns and labels:
Format in all cases: in vivo, male Wistar rats
[1] = test system: rat heart septal wall thickening; experiment: Test 5: effect to suppress heart septal wall thickening in rats administered with L-NAME; details: compared with L-NAME alone; drinking water with L-NAME 1 g/L plus IPP 0.3 g/L or Enalapril 0.5 mg/L, ad libitum for eight weeks; FIG. 4
[2] = test system: rat left ventricle wall thickening; experiment: Test 3: effect to suppress left ventricle wall thickening in rats administered with L-NAME; details: compared with L-NAME alone; drinking water with L-NAME 1 g/L plus IPP 0.3 g/L or Enalapril 0.5 mg/L, ad libitum for eight weeks; FIG. 3
Description: (§1) The tripeptide Ile Pro Pro (IPP) was also tested for the suppressive effect against the thickening of the ventricle wall. The test was carried out using three groups of male Wistar rats of seven weeks old (Japan SLC, Inc.), each of which group consist of 9 to 11 rats. After acclimation for a week, the animals received: water with L-NAME (manufactured by Sigma) being dissolved at a concentration of 1 g/L; water with L-NAME and IPP being dissolved at a concentration of 1 g/L and 0.3 g/L respectively; or water with L-NAME and angiotensin converting enzyme (ACE) inhibitor, Enalapril at a concentration of 1 g/L and 0.5 mg/L respectively, ad libitum for eight weeks. The dose of Enalapril was determined such that its activity to inhibit ACE was equivalent to the activity of IPP to inhibit ACE.
(§2) The rats were sacrificed by exsanguination under diethylether anesthesia. […] The sliced thin sections were stained with hematoxylin and eosin and the thickness of the left ventricle wall was measured. As for the measurement of the thickness of the ventricle wall, the thickness of a plural of the points for one section, each of which point was considered to have an average thickness, was actually measured with an ocular micrometer under a microscope. The average thickness was defined as the measured value of the section and subjected to statistical analysis. […]

[3] = test system: rat left ventricle wall thickening; experiment: Test 1: effect to suppress left ventricle wall thickening in rats administered with L-NAME; details: compared with L-NAME alone; drinking water with L-NAME 1 g/L plus VPP 0.3 g/L or Enalapril 0.5 mg/L, ad libitum for eight weeks; FIG. 1
Description: The tripeptide Val Pro Pro (VPP) was tested for the effect of suppressing the thickening of the left ventricle. The test was carried out using three groups of male Wistar rats of seven weeks old (Japan SLC, Inc.), each of which group consisted of 9 to 12 rats. […] The dose of Enalapril was determined such that its activity to inhibit ACE was equivalent to VPP's.
as §2, with “points per” for “points for”

[4] = test system: rat right ventricle wall thickening; experiment: Test 2: effect to suppress right ventricle wall thickening in rats administered with L-NAME; details: compared with L-NAME alone; drinking water with L-NAME 1 g/L plus VPP 0.3 g/L or Enalapril 0.5 mg/L, ad libitum for eight weeks; FIG. 2
[5] = test system: rat right ventricle wall thickening; experiment: Test 4: effect to suppress right ventricle wall thickening in rats administered with L-NAME; details: L-NAME 1 g/L plus IPP 0.3 g/L or Enalapril 0.5 mg/L in water, eight weeks; for Normal (right ventricle wall equal to or smaller than reference value) / Thickening Positive (right ventricle wall thicker than reference value of rats without L-NAME): likelihood-ratio test, IPP group p < 0.01
Description: In order also to check the effect of the tripeptide Ile Pro Pro (IPP) to suppress the thickening of the right ventricle wall, a test was carried out in the same manner as in Test 3, and measurement and evaluation were made.
as §1, with “The” for “The tripeptide Ile Pro Pro (IPP) was also tested for the suppressive effect against the thickening of the ventricle wall. The”, “12” for “11”, “animal” for “animals”
The rats were sacrificed by exsanguination under diethylether anesthesia. The heart was enucleated and then fixed with 10% neutral buffered formalin solution. Annularly-shaped tissue samples were prepared from the fixed heart by horizontally excising the lower part of the atria such that the right ventricle, septum, left ventricle, and coronary artery were included. The specimen were embedded in paraffin and cut into thin sections with a thickness of 3.0 to 3.5 μm using a microtome. Two to five sections per rat were prepared. Slices of the thin sections were stained with hematoxylin and eosin and the thickness of the right ventricle wall was measured. As for the measurement of the thickness of the ventricle wall, the thickness of a plural of the points for one section, each of which point was considered to have an average thickness, was actually measured with an ocular micrometer under a microscope. The average thickness was defined as the measured value of the section and the thickness of the ventricle wall of each individual was determined. The measurement and evaluation of the thickness was carried out by a pathologist who was not informed of the name of each sample.
The evaluation of the thickening of the ventricle wall involved the measurement of the thickness of the ventricle wall of six rats of the same age in weeks, which rats were fed with general tap water with no L-NAME being added. The average of those was defined as a reference value. In cases where the thickness of its ventricle wall was larger than the reference value, a rat was defined as one with the thickening, whereas in cases where the thickness of its ventricle wall was equal to or smaller than the reference value, a rat was considered to be normal. Using the number of the rats with the thickening and the normal rats, comparisons by likelihood-ratio test were made.

Compound	thickness of the heart septal wall [1]	thickness of the left ventricle wall [2]	thickness of the left ventricle wall [3]	thickness of the right ventricle wall [4]	suppression of the thickening of the right ventricle wall (result in words) [5]	Normal (right ventricle wall equal to or smaller than reference value) [5]	Thickening Positive (right ventricle wall thicker than reference value of rats without L-NAME) [5]
CCOC(=O)[C@H](CCc1ccccc1)N[C@@H](C)C(=O)N1CCC[C@H]1C(=O)O [Enalapril]	did not exhibit the effect	did not exhibit such an effect	did not exhibit the effect	did not show such an effect	did not exhibit such an effect	8 rats	1 rat^ rats
Ile Pro Pro [IPP]	showed a decrease in the thickness of the heart septal wall	showed a decrease in the thickness of the left ventricle wall			suppressed the thickening of the right ventricle wall	9 rats	0 rats
Val Pro Pro [VPP]			showed a decrease in the thickness of the left ventricle wall	showed a decrease in the thickness of the right ventricle wall			
